Two compounds from PMC5516003, “Betulinic acid is a PPARγ antagonist that improves glucose uptake, promotes osteogenesis and inhibits adipogenesis” (Scientific Reports, 2017) can be followed below.

pKd: −log10 of the molar value.

The target of assay [1] is T1, PPARγ (Homo sapiens, UniProt P37231).
T1 construct: gene PPARG
T1 sequence (P37231 222-505): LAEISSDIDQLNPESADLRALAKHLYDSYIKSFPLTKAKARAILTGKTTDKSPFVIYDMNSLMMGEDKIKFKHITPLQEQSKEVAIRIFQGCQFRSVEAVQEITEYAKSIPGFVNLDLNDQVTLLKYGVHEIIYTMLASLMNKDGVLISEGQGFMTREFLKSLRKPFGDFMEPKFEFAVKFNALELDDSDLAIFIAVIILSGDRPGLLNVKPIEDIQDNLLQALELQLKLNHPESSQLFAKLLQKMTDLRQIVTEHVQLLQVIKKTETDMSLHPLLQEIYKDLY
Description: ITC (reverse titration) and X-ray crystal structure; also affinity cartridge and GAL4 antagonist assay (IC50 […]). The format is binding.

Assay [2] has as its target T2, PPARγ (Homo sapiens, UniProt P37231).
T2 construct: gene PPARG; His-tagged PPARγ LBD
T2 sequence (P37231 231-505 limits assumed): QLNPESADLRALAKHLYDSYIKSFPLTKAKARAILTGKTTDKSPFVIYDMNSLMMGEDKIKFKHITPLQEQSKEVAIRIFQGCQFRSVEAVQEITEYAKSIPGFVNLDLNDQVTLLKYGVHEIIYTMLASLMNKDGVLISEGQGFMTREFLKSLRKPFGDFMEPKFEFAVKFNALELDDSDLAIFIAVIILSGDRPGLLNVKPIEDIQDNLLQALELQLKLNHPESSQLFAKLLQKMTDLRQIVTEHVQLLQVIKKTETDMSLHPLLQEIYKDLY
Put plainly: immobilized-receptor affinity cartridge (breakthrough shift); also GAL4 transactivation partial agonist, Emax […]. It is filed as binding.

The pKd is −log10 of the Kd, conventionally taken in molar units. For `C=C(C)[C@@H]1CC[C@]2(C(=O)O)CC[C@]3(C)[C@H](CC[C@@H]4[C@@]5(C)CC[C@H](O)C(C)(C)[C@@H]5CC[C@]43C)[C@@H]12` [BA, betulinic acid], the pKd at PPARγ [1] was 5.40.

As to `CC1=CC(=O)c2c(O)cccc2C1=O` [plumbagin], the “immobilized-receptor affinity cartridge (breakthrough shift); also GAL4 transact” value at PPARγ [2] was “only three ligands (i.e., plumbagin, BA and coumarin) interact with the receptor”.
